# Calls of active or inactive are those of the source. No cut-off for these calls is given here.
# Columns and labels:
# [1] = tested on: Stenotrophomonas maltophilia; assay: Antibacterial activity against Stenotrophomonas maltophilia isolate 634/08 after 18 hrs by microdilution broth method; format: functional; details: isolate 634/08, 18 h
# [2] = tested on: Bacillus spizizenii; assay: Antibacterial activity against Bacillus subtilis ATCC 6633 after 18 hrs by microdilution broth method; format: functional; details: ATCC 6633, 18 h
# [3] = tested on: Streptococcus pyogenes; assay: Antibacterial activity against Streptococcus pyogenes ATCC 12344 after 18 hrs by microdilution broth method; format: functional; details: ATCC 12344, 18 h
# [4] = tested on: Escherichia coli; assay: Antibacterial activity against Escherichia coli CCUG after 18 hrs by microdilution broth method
# [5] = tested on: Klebsiella pneumoniae; assay: Antibacterial activity against Klebsiella pneumoniae isolate SI-081 after 18 hrs by microdilution broth method; format: functional; details: isolate SI-081, 18 h
# [6] = tested on: Klebsiella pneumoniae; assay: Antibacterial activity against Klebsiella pneumoniae ATCC […] after 18 hrs by microdilution broth method; format: functional
# [7] = tested on: Staphylococcus aureus; assay: Antibacterial activity against Staphylococcus aureus ATCC 25923 after 18 hrs by microdilution broth method; format: functional; details: ATCC 25923, 18 h
# [8] = tested on: Acinetobacter baumannii; assay: Antibacterial activity against Acinetobacter baumannii ATCC 17978 after 18 hrs by microdilution broth method; format: functional; details: ATCC 17978, 18 h
# [9] = tested on: Pseudomonas aeruginosa; assay: Antibacterial activity against Pseudomonas aeruginosa ATCC 27853 after 18 hrs by microdilution broth method; format: functional; details: ATCC 27853, 18 h
# [10] = tested on: Enterococcus faecalis; assay: Antibacterial activity against Enterococcus faecalis ATCC 19433 after 18 hrs by microdilution broth method; format: functional; details: ATCC 19433, 18 h
# [11] = tested on: Burkholderia cepacia; assay: Antibacterial activity against Burkholderia cepacia isolate SI-R2 after 18 hrs by microdilution broth method; format: functional; details: isolate SI-R2, 18 h
# [12] = tested on: Enterobacter cloacae; assay: Antibacterial activity against Enterobacter cloacae isolate VA-417/02 after 18 hrs by microdilution broth method; format: functional; details: isolate VA-417/02, 18 h
# [13] = tested on: Acinetobacter baumannii; assay: Antibacterial activity against Acinetobacter baumannii isolate AC-54/97 after 18 hrs by microdilution broth method; format: functional; details: isolate AC-54/97, 18 h
# [14] = tested on: Pseudomonas aeruginosa; assay: Antibiofilm activity against Pseudomonas aeruginosa PAO1 ATCC 15692 at half MIC concentration after 24 hrs by crystal violet-based assay; format: functional, organism-based
# [15] = tested on: Escherichia coli; assay: Disruption of Escherichia coli MG1655 ATCC 47076 outer membrane integrity assessed as induction of NPN uptake after 30 mins by NPN fluorescence-based assay; format: functional, organism-based; details: K-12 substr. MG1655 ATCC 47076
# [16] = tested on: Acinetobacter baumannii; assay: Antibiofilm activity against Acinetobacter baumannii ATCC 19606 at half MIC concentration after 24 hrs by crystal violet-based assay; format: functional, organism-based; details: ATCC 19606 = CIP 70.34 = JCM 6841
# [17] = tested on: Pseudomonas aeruginosa; assay: Antibiofilm activity against Pseudomonas aeruginosa PAO1 ATCC 15692 assessed as effect on biofilm 3D structures at half MIC concentration after 24 hrs by AO-staining based confocal microscopy; format: functional, organism-based
# [18] = Hemolytic activity against human erythrocytes assessed as induction of hemolysis at 64 ug/ml after 30 mins; format: cell-based, Erythrocyte; details: read-out: Activity
# [19] = tested on: Escherichia coli; assay: Disruption of inner membrane integrity in Escherichia coli MG1655 assessed as induction of […] conversion at 256 ug/ml measured at 10 mins intervals for 1 hr; format: functional, organism-based; details: K-12 substr. MG1655
# [20] = tested on: Escherichia coli; assay: Antibiofilm activity against Escherichia coli MG1655 ATCC 47076 assessed as effect on biofilm 3D structures at half MIC concentration after 24 hrs by AO-staining based confocal microscopy; format: functional, organism-based; details: K-12 substr. MG1655 ATCC 47076
# [21] = tested on: Acinetobacter baumannii; assay: Antibiofilm activity against Acinetobacter baumannii ATCC 19606 assessed as effect on biofilm 3D structures at half MIC concentration after 24 hrs by AO-staining based confocal microscopy; format: functional, organism-based; details: ATCC 19606 = CIP 70.34 = JCM 6841
# [22] = tested on: Escherichia coli; assay: Antibiofilm activity against Escherichia coli MG1655 ATCC 47076 at half MIC concentration after 24 hrs by crystal violet-based assay; format: functional, organism-based; details: K-12 substr. MG1655 ATCC 47076
# [23] = tested on: Pseudomonas aeruginosa; assay: Disruption of inner membrane integrity in Pseudomonas aeruginosa PAO1 ATCC 15692 co-expressing pMP2200::PrrnB plasmid assessed as induction of OPNG conversion at 256 ug/ml measured at 10 mins intervals for 1 hr; format: functional, organism-based
# [24] = tested on: Pseudomonas aeruginosa; assay: Disruption of Pseudomonas aeruginosa PAO1 ATCC 15692 outer membrane integrity assessed as induction of NPN uptake after 30 mins by NPN fluorescence-based assay; format: functional, organism-based
# [25] = tested on: Acinetobacter baumannii; assay: Disruption of inner membrane integrity in Acinetobacter baumannii ATCC 19606 co-expressing pMP2200::PrrnB plasmid assessed as induction of […] conversion at 256 ug/ml measured at 10 mins intervals for 1 hr; format: functional, organism-based; details: ATCC 19606 = CIP 70.34 = JCM 6841
# [26] = tested on: Acinetobacter baumannii; assay: Disruption of Acinetobacter baumannii ATCC 19606 outer membrane integrity assessed as induction of NPN uptake after 30 mins by NPN fluorescence-based assay; format: functional, organism-based; details: ATCC 19606 = CIP 70.34 = JCM 6841
SMILES,MIC [1] [µg/mL],MIC [2] [µg/mL],MIC [3] [µg/mL],MIC [4] [µg/mL],MIC [5] [µg/mL],MIC [6] [µg/mL],MIC [7] [µg/mL],MIC [8] [µg/mL],MIC [9] [µg/mL],MIC [10] [µg/mL],MIC [11] [µg/mL],MIC [12] [µg/mL],further results
CNC(=N)NCCCCCCCCN(CCCCCCCCNC(=N)N)C(=O)N(CCCCCCCCNC(=N)N)CCCCCCCCNC(=N)NC,16,0.5,0.5,1,8,4,0.5,8,8,1,32,4,MIC [13]: 4 µg/mL
CCNC(=N)NCCCCCCCCN(CCCCCCCCNC(=N)NCC)C(=O)N(CCCCCCCCNC(=N)NCC)CCCCCCCCNC(=N)NCC,32,0.5,0.25,2,8,4,0.5,16,32,1,32,2,MIC [13]: 8 µg/mL
N=C(N)NCCCCCCCCN(CCCCCCCCNC(=N)N)C(=O)N(CCCCCCCCNC(=N)NCC1CC1)CCCCCCCCNC(=N)NCC1CC1,,2,4,4,,4,8,16,16,8,,,
N=C(N)NCCCCCCCCN(CCCCCCCCNC(=N)N)C(=O)N(CCCCCCCCNC(=N)N)CCCCCCCCNC(=N)N,,32,1,4,,32,2,16,32,2,,,"Activity [14]: inactive; Activity [15]: Dose-dependent effect; Activity [16]: inactive; Activity [17]: inactive; hemolysis at 0.5 h, 64 ug/ml [18]: 0 to 7%; Activity [19]: inactive; Activity [20]: inactive; Activity [21]: inactive; Activity [22]: inactive; Activity [23]: inactive; Activity [24]: Dose-dependent effect; Activity [25]: inactive; Activity [26]: Dose-dependent effect"
N=C(NCCCCCCCCN(CCCCCCCCNC(=N)NCC1CC1)C(=O)N(CCCCCCNC(=N)NCC1CC1)CCCCCCNC(=N)NCC1CC1)NCC1CC1,,4,1,4,,4,2,64,128,8,,,
N=C(NCCCCCCCCN(CCCCCCCCNC(=N)NCc1ccccc1)C(=O)N(CCCCCCCCNC(=N)NCc1ccccc1)CCCCCCCCNC(=N)NCc1ccccc1)NCc1ccccc1,,4,1,4,,4,8,16,8,4,,,
N=C(N)NCCCCCCCCN(CCCCCCCCNC(=N)NCc1ccccc1)C(=O)N(CCCCCCCCNC(=N)N)CCCCCCCCNC(=N)NCc1ccccc1,8,2,2,4,8,2,2,8,16,2,16,4,
CCNC(=N)NCCCCCCCCN(CCCCCCCCNC(=N)N)C(=O)N(CCCCCCCCNC(=N)N)CCCCCCCCNC(=N)NCC,16,1,0.5,2,4,2,1,16,16,1,32,4,
N=C(N)NCCCCCCN(CCCCCCNC(=N)NCC1CC1)C(=O)N(CCCCCCNC(=N)NCC1CC1)CCCCCCNC(=N)NCC1CC1,,4,2,8,,16,4,64,128,16,,,

# Reference: ChEMBL document CHEMBL4308851, “Alkyl-guanidine Compounds as Potent Broad-Spectrum Antibacterial Agents: Chemical Library Extension and Biological Characterization” (J Med Chem, 2018)
